From US12338256B2, “Aza-tetracyclic oxazepine compounds and uses thereof” (Genentech, Inc., priority 2022, dated 2025)

Assays:
Format in all cases: cell-based
[1] = tested on: H1975 (KRAS wild type human lung adenocarcinoma cell line); test: KRAS 3D-Cell Proliferation Assay, H1975 (Example 503); conditions: Homo sapiens, NCI-H1975, 168 h, H1975 3D culture, 7 days, CellTiter-Glo 3D; read-out: Prolif H1975 3D ATP IC50
Summary of the method: (§1)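 IC50s come from a 4-parameter Hill fit of luminescence (CellTiter-Glo 3D) normalized between DMSO (0%) and 1 μM staurosporine (100%). Cells in low-attachment 3D culture, RPMI-1640 with 10% FBS, received serial compound dilutions (0.3% DMSO) after overnight and were incubated 7 days at 37 °C.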

[2] = tested on: PC-9 (KRAS wild type human lung adenocarcinoma cell line); test: KRAS 3D-Cell Proliferation Assay, PC-9 (Example 503); conditions: 168 h, PC-9 3D culture, 7 days, CellTiter-Glo 3D, read-out: Prolif PC9 3D ATP IC50
Summary of the method: as §1

[3] = tested on: HPAC (homozygous mutant KRAS G12D human pancreatic cell line); test: KRAS 3D-Cell Proliferation Assay, HPAC (Example 503); conditions: Homo sapiens, HPAC, 168 h, HPAC 3D culture, 7 days, CellTiter-Glo 3D; read-out: Prolif HPAC 3D ATP IC50
Summary of the method: as §1

[4] = tested on: AsPC-1 (homozygous mutant KRAS G12D human pancreatic cell line); test: KRAS 3D-Cell Proliferation Assay, AsPC-1 (Example 503); conditions: Homo sapiens, ASPC1, 168 h, AsPC-1 3D culture, 7 days, CellTiter-Glo 3D; read-out: Prolif AsPC-1 3D ATP IC50
Summary of the method: as §1

SMILES | IC50 [1] [nM] | IC50 [2] [nM] | IC50 [3] [nM] | IC50 [4] [nM]
C=C1CN2CCC[C@@]2(COc2nc3c4c(nc(-c5cc(N)c(F)c(C)c5C(F)(F)F)c(F)c4n2)O[C@@H](C)[C@@H]2[C@@H]4CC[C@H](CN32)N4)C1 [Compound 57, 2-Fluoro-5-((5S,5aS,6S,9R)-1-fluoro-5-methyl-12-(((S)-2-methylenetetrahydro-1H-pyrrolizin-7a(5H)-yl)methoxy)-5a,6,7,8,9,10-hexahydro-5H-4-oxa-3,10a,11,13,14-pentaaza-6,9-methanonaphtho[1,8-ab]heptalen-2-yl)-3-methyl-4-(trifluoromethyl) aniline] | 251 | 3110 | 2.59 | 0.361
Cc1c(F)c(N)cc(-c2nc3c4c(nc(OC[C@@H]5CC[C@H]6COCCN65)nc4c2F)N2C[C@H]4CC[C@H](N4)[C@H]2[C@H](C)O3)c1C(F)(F)F [Compound 31, 2-fluoro-5-((5S,5aS,6S,9R)-1-fluoro-12-(((6S,8aS)-hexahydro-1H-pyrrolo[2,1-c][1,4]oxazin-6-yl)methoxy)-5-methyl-5a,6,7,8,9,10-hexahydro-5H-4-oxa-3,10a,11,13,14-pentaaza-6,9-methanonaphtho[1,8-ab]heptalen-2-yl)-3-methyl-4-(trifluoromethyl)aniline] | 423 | 3790 | 0.808 | 1.64
C#Cc1c(F)ccc2cc(O)cc(-c3nc4c5c(nc(OC[C@@]67CCCN6C[C@H](F)C7)nc5c3F)N3C[C@H]5CC[C@H](N5)[C@H]3[C@H](C)O4)c12 [Compound 7, 5-Ethynyl-6-fluoro-4-((5S,5aS,6S,9R)-1-fluoro-12-(((2R,7aS)-2-fluorotetrahydro-1H-pyrrolizin-7a(5H)-yl)methoxy)-5-methyl-5a,6,7,8,9,10-hexahydro-5H-4-oxa-3,10a,11,13,14-pentaaza-6,9-methanonaphtho[1,8-ab]heptalen-2-yl)naphthalen-2-ol] | 130 | 10200 | 1.36 | 1.92
C[C@@H]1Oc2nc(-c3cccc4cccc(Cl)c34)c(F)c3nc(OC[C@@]45CCCN4CC4(CC4(F)F)C5)nc(c23)N2C[C@H]3CC[C@H](N3)[C@@H]12 (stereo partly drawn) [Compound 27, (5S,5aS,6S,9R)-2-(8-chloronaphthalen-1-yl)-12-(((7a′S)-2,2-difluorodihydro-1′H,3′H-spiro[cyclopropane-1,2′-pyrrolizin]-7a′(5′H)-yl)methoxy)-1-fluoro-5-methyl-5a,6,7,8,9,10-hexahydro-5H-4-oxa-3,10a,11,13,14-pentaaza-6,9-methanonaphtho[1,8-ab]heptalene] | 2390 | 2780 | 68.1 | 32.1
Cc1cc(N)nc(-c2nc3c4c(nc(OC[C@@]56CCCN5CC5(CC5(F)F)C6)nc4c2F)N2C[C@H]4CC[C@H](N4)[C@H]2[C@H](C)O3)c1C(F)(F)F (stereo partly drawn) [Compound 47, 6-((5S,5aS,6S,9R)-12-(((7a′S)-2,2-difluorodihydro-1′H,3′H-spiro[cyclopropane-1,2′-pyrrolizin]-7a′(5′H)-yl)methoxy)-1-fluoro-5-methyl-5a,6,7,8,9,10-hexahydro-5H-4-oxa-3,10a,11,13,14-pentaaza[6,9]methanonaphtho[1,8-ab]heptalen-2-yl)-4-methyl-5-(trifluoromethyl)pyridin-2-amine] | 1530 | 8840 | 2.95 | 3.97
Cc1cc(N)c(F)c(-c2nc3c4c(nc(OC[C@@]56CCCN5C[C@H](F)C6)nc4c2F)N2C[C@H]4CC[C@H](N4)[C@H]2[C@H](C)O3)c1C(F)(F)F [Compound 34, 2-Fluoro-3-((5S,5aS,6S,9R)-1-fluoro-12-(((2R,7aS)-2-fluorotetrahydro-1H-pyrrolizin-7a(5H)-yl)methoxy)-5-methyl-5a,6,7,8,9,10-hexahydro-5H-4-oxa-3,10a,11,13,14-pentaaza-6,9-methanonaphtho[1,8-ab]heptalen-2-yl)-5-methyl-4-(trifluoromethyl)aniline] | 340 | 6950 | 0.54 | 0.692
